We go through 28 compounds from patent US11571423B2, “Small molecule modulators of human sting” (Curadev Pharma Limited, priority 2017, dated 2023).

The EC50 is the concentration giving half of the maximal effect.

Each structure is given as a SMILES string. Where only a bound is given, the exact number is not on record here.

hSTING(R232), sequence (Q86WV6 whole entry H232R): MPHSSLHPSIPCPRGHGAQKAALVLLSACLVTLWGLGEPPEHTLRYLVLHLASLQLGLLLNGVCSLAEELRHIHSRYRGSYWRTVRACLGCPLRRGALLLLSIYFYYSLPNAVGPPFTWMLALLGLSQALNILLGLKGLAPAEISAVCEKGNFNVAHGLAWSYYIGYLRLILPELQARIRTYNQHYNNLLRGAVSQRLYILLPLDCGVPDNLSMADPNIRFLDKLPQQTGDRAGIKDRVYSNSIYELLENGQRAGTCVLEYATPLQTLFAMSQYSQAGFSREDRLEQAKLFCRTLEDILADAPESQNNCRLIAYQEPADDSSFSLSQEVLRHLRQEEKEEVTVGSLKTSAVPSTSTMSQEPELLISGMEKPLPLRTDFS

The target of the test is hSTING(R232) (Homo sapiens, UniProt Q86WV6, H232R). The test is described as follows: Luciferase reporter assay in HEK293T-hSTING-Luciferase cells, R232 (wild type) human STING. Type of test: cell-based. The note with it: 20 hr stimulation, read-out: R232 human activity (EC50 range). From the text:
Stable Cell Line Generation • a) Stable STING expressing cells—Stable HEK293T STING-expressing cell lines were generated using plasmids purchased from Invivogen, CA, USA, that contain STING cDNA cloned into the pUNO-1 vector under hEF1-HTLV promoter and containing the Blasticidin selection cassette. The plasmids hSTING(R232), hSTING(H232), hSTING(HAQ) were directly procured from Invivogen while hSTING (AQ) and hSTING (Q) were derived from hSTING(HAQ) and hSTING (R232) plasmids respectively by using a PCR based site directed mutagenesis method. These vectors were individually transfected into HEK293T cells using Lipofectamine (Invitrogen) and transfected cells were selected under Blasticidin selection. These transfected cells were further subjected to clonal selection using the limiting dilution method to obtain clonally pure populations of HEK cells transfected with each of the above mentioned human STING variants. Only those clones were selected in which ligand independent activation of STING was minimal. • b) Stable Luciferase reporter gene expressing cells—Stable HEK293T Luciferase reporter gene expressing cell lines were generated using pCDNA4 plasmids under an IRF-inducible promoter. This promoter is comprised of five tandem interferon-stimulated response elements (ISRE) fused to an ISG54 minimal promoter. This vector was transfected into HEK293T cells using Lipofectamine (Invitrogen) and transfected cells were selected under Zeocin selection. These transfected cells were further subjected to clonal selection using the limiting dilution method to obtain clonally pure populations of HEK cells transfected the Luciferase reporter construct. Only those clones were selected in which ligand independent induction of luciferase was minimal.
5×10^5 clonally selected HEK293T-hSTING-Luciferase cells were seeded in 384-well plates in growth medium and stimulated with novel compounds. After 20 hr of stimulation supernatant were removed and secretary reporter gene activity were measured using the Quanti-Luc detection system (Invivogen) on a Spectramax i3X luminometer.
In the tables below, EC50 value ranges for exemplary compounds are given.
All compounds were first tested in a primary screen to obtain a ‘fold-induction’ over baseline levels of protein activity.
For orientation: In a reporter assay the amount or activity of a reporter protein is the signal.
Take `CC1c2ccc(C(=O)NCc3c(F)cc(F)cc3F)cc2N(Cc2c(F)cccc2Cl)C(=O)N1C` (racemic) [Example 74, 1-(2-chloro-6-fluorobenzyl)-3,4-dimethyl-2-oxo-N-(2,4,6-trifluorobenzyl)-1,2,3,4-tetrahydroquinazoline-7-carboxamide]: the EC50 is < 1000 nM. Consider `C[C@@H]1c2ccc(C(=O)NCc3c(F)cc(F)cc3F)cc2N(Cc2c(F)cccc2Cl)C(=O)N1C` (single isomer, unassigned) [Example 75], for which the EC50 was in the range of 1000 to 10000 nM. In the case of `CN1Cc2ccc(C(=O)NCc3c(F)cc(F)cc3F)cc2N(Cc2cc(F)cc(F)c2)C1=O` [Example 1, 1-(3,5-difluorobenzyl)-3-methyl-2-oxo-N-(2,4,6-trifluorobenzyl)-1,2,3,4-tetrahydroquinazoline-7-carboxamide] it was < 1000 nM; in that of `Cc1ccc(CNC(=O)c2ccc3c(c2)N(Cc2cc(F)cc(F)c2)C(=O)N(C)C3)o1` [Example 2, 1-(3,5-difluorobenzyl)-3-methyl-N-((5-methylfuran-2-yl)methyl)-2-oxo-1,2,3,4-tetrahydroquinazoline-7-carboxamide], > 10000 nM.

For the compound `O=C(NCc1c(F)cc(F)cc1F)c1ccc2c(c1)N(Cc1cc(F)cc(F)c1)C(=O)N(C1CC1)C2` [Example 3, 3-cyclopropyl-1-(3.5-difluorobenzyl)-2-oxo-N-(2,4,6-trifluorobenzyl)-1,2,3,4-tetrahydroquinazoline-7-carboxamide], the EC50 was > 10000 nM. In the case of `CN1Cc2ccc(C(=O)NCc3ccc(F)cc3F)cc2N(Cc2cc(F)cc(F)c2)C1=O` [Example 4, N-(2,4-difluorobenzyl)-1-(3,5-difluorobenzyl)-3-methyl-2-oxo-1,2,3,4-tetrahydroquinazoline-7-carboxamide], the EC50 was < 1000 nM.

Turning to `CN1Cc2ccc(C(=O)NCc3c(F)cc(F)cc3F)cc2N(Cc2c(F)cccc2Cl)C1=O` [Example 5, 1-(2-chloro-6-fluorobenzyl)-3-methyl-2-oxo-N-(2,4,6-trifluorobenzyl)-1,2,3,4-tetrahydroquinazoline-7-carboxamide], the EC50 is < 1000 nM. In the case of `CN1Cc2ccc(C(=O)NCc3c(F)cc(F)cc3F)cc2N(Cc2ccc(F)cc2)C1=O` [Example 6, 1-(4-fluorobenzyl)-3-methyl-2-oxo-N-(2,4,6-trifluorobenzyl)-1,2,3,4-tetrahydroquinazoline-7-carboxamide] it was < 1000 nM; in that of `CCN1Cc2ccc(C(=O)NCc3c(F)cc(F)cc3F)cc2N(Cc2cc(F)cc(F)c2)C1=O` [Example 7, 1-(3,5-difluorobenzyl)-3-ethyl-2-oxo-N-(2,4,6-trifluorobenzyl)-1,2,3,4-tetrahydroquinazoline-7-carboxamide], 1000 to 10000 nM. For `CN1Cc2ccc(C(=O)NCc3c(F)cc(F)cc3F)cc2N(Cc2ccc(F)cc2F)C1=O` [Example 8, 1-(2,4-difluorobenzyl)-3-methyl-2-oxo-N-(2,4,6-trifluorobenzyl)-1,2,3,4-tetrahydroquinazoline-7-carboxamide] the value was < 1000 nM; for `Cc1cccc(F)c1CN1C(=O)N(C)Cc2ccc(C(=O)NCc3c(F)cc(F)cc3F)cc21` [Example 9, 1-(2-fluoro-6-methylbenzyl)-3-methyl-2-oxo-N-(2,4,6-trifluorobenzyl)-1,2,3,4-tetrahydroquinazoline-7-carboxamide], < 1000 nM; for `COc1cccc(F)c1CN1C(=O)N(C)Cc2ccc(C(=O)NCc3c(F)cc(F)cc3F)cc21` [Example 10, 1-(2-fluoro-6-methoxybenzyl)-3-methyl-2-oxo-N-(2,4,6-trifluorobenzyl)-1,2,3,4-tetrahydroquinazoline-7-carboxamide], < 1000 nM. In the case of `CN1Cc2ccc(C(=O)NCc3c(F)cc(F)cc3F)cc2N(Cc2c(F)cccc2Br)C1=O` [Example 11, 1-(2-bromo-6-fluorobenzyl)-3-methyl-2-oxo-N-(2,4,6-trifluorobenzyl)-1,2,3,4-tetrahydroquinazoline-7-carboxamide] it was < 1000 nM; in that of `CN1Cc2ccc(C(=O)NCc3c(F)cc(F)cc3F)cc2N(Cc2ccccc2F)C1=O` [Example 12, 1-(2-fluorobenzyl)-3-methyl-2-oxo-N-(2,4,6-trifluorobenzyl)-1,2,3,4-tetrahydroquinazoline-7-carboxamide], < 1000 nM; in that of `Cc1cccc(CN2C(=O)N(C)Cc3ccc(C(=O)NCc4c(F)cc(F)cc4F)cc32)c1F` [Example 13, 1-(2-fluoro-3-methylbenzyl)-3-methyl-2-oxo-N-(2,4,6-trifluorobenzyl)-1,2,3,4-tetrahydroquinazoline-7-carboxamide], < 1000 nM.

For the compound `CN1Cc2ccc(C(=O)NCc3c(F)cc(F)cc3F)cc2N(Cc2cccc(C(N)=O)c2)C1=O` [Example 14, 1-(3-carbamoylbenzyl)-3-methyl-2-oxo-N-(2,4,6-trifluorobenzyl)-1,2,3,4-tetrahydroquinazoline-7-carboxamide], the EC50 lay within 1000 to 10000 nM.

With `CC(C)N1Cc2ccc(C(=O)NCc3c(F)cc(F)cc3F)cc2N(Cc2cc(F)cc(F)c2)C1=O` [Example 15, 1-(3,5-difluorobenzyl)-3-isopropyl-2-oxo-N-(2,4,6-trifluorobenzyl)-1,2,3,4-tetrahydroquinazoline-7-carboxamide], the EC50 was 1000 to 10000 nM.

For the compound `CN1Cc2ccc(C(=O)NCc3cc4ccccc4o3)cc2N(Cc2cc(F)cc(F)c2)C1=O` [Example 16, N-(benzofuran-2-ylmethyl)-1-(3.5-difluorobenzyl)-3-methyl-2-oxo-1,2,3,4-tetrahydroquinazoline-7-carboxamide], the EC50 lay in the range of 1000 to 10000 nM. In the case of `CN1Cc2ccc(C(=O)NCc3c(F)cc(F)cc3F)cc2N(Cc2ccc(F)cc2Cl)C1=O` [Example 17, 1-(2-chloro-4-fluorobenzyl)-3-methyl-2-oxo-N-(2,4,6-trifluorobenzyl)-1,2,3,4-tetrahydroquinazoline-7-carboxamide], the half-maximal effective concentration (EC50) lay within 1000 to 10000 nM. `O=C(NCc1c(F)cc(F)cc1F)c1ccc2c(c1)N(Cc1cc(F)cc(F)c1)C(=O)NC2` [Example 18, 1-(3,5-difluorobenzyl)-2-oxo-N-(2,4,6-trifluorobenzyl)-1,2,3,4-tetrahydroquinazoline-7-carboxamide]: the EC50 fell in the range of 1000 to 10000 nM. For `CN1Cc2ccc(C(=O)NCc3c(F)cc(F)cc3F)cc2N(Cc2ccccc2Cl)C1=O` [Example 19, l-(2-chlorobenzyl)-3-methyl-2-oxo-N-(2,4,6-trifluorobenzyl)-1,2,3,4-tetrahydroquinazoline-7-carboxamide] the value was 1000 to 10000 nM.

With `O=C(NCc1c(F)cc(F)cc1F)c1ccc2c(c1)N(Cc1c(F)cccc1Cl)C(=O)N(c1ncccn1)C2` [Example 21, 1-(2-chloro-6-fluorobenzyl)-2-oxo-3-(pyrimidin-2-yl)-N-(2,4,6-trifluorobenzyl)-1,2,3,4-tetrahydroquinazoline-7-carboxamide], the EC50 is > 10000 nM. For `COc1ccc2cc(CNC(=O)c3ccc4c(c3)N(Cc3c(F)cccc3Cl)C(=O)N(C)C4)oc2c1` [Example 22, 1-(2-chloro-6-fluorobenzyl)-N-((6-methoxybenzofuran-2-yl)methyl)-3-methyl-2-oxo-1,2,3,4-tetrahydroquinazoline-7-carboxamide] the value was > 10000 nM; for `CN1Cc2ccc(C(=O)NCc3cc4ccc(F)cc4o3)cc2N(Cc2c(F)cccc2Cl)C1=O` [Example 23, 1-(2-chloro-6-fluorobenzyl)-N-((6-fluorobenzofuran-2-yl)methyl)-3-methyl-2-oxo-1,2,3,4-tetrahydroquinazoline-7-carboxamide], 1000 to 10000 nM. For `CN1Cc2ccc(C(=O)NCc3cc4cc(F)ccc4o3)cc2N(Cc2c(F)cccc2Cl)C1=O` [Example 24, 1-(2-chloro-6-fluorobenzyl)-N-((5-fluorobenzofuran-2-yl)methyl)-3-methyl-2-oxo-1,2,3,4-tetrahydroquinazoline-7-carboxamide] the value was 1000 to 10000 nM; for `CN1Cc2ccc(C(=O)NCc3cccc(-c4ncco4)c3)cc2N(Cc2c(F)cccc2Cl)C1=O` [Example 25, 1-(2-chloro-6-fluorobenzyl)-3-methyl-N-(3-(oxazol-2-yl)benzyl)-2-oxo-1,2,3,4-tetrahydroquinazoline-7-carboxamide], > 10000 nM. Take `CN1Cc2ccc(C(=O)NCCn3cncn3)cc2N(Cc2c(F)cccc2Cl)C1=O` [Example 26, N-(2-(1H-1,2,4-triazol-l-yl)ethyl)-1-(2-chloro-6-fluorobenzyl)-3-methyl-2-oxo-1,2,3,4-tetrahydroquinazoline-7-carboxamide]: the EC50 was > 10000 nM.

`CN1Cc2ccc(C(=O)NCc3cc4cc(O)ccc4o3)cc2N(Cc2c(F)cccc2Cl)C1=O` [Example 27, 1-(2-chloro-6-fluorobenzyl)-N-((5-hydroxybenzof uran-2-yl)methyl)-3-methyl-2-oxo-1.2,3,4-tetrahydroquin azoline-7-carboxamide]: the half-maximal effective concentration (EC50) was 1000 to 10000 nM.
